Data reported in article PMC10539361, “Allosteric modulation of the fish taste receptor type 1 (T1R) family by the extracellular chloride ion” (Scientific Reports, 2023).
pEC50: −log10 of the molar value.

Assays:
mfT1R2a K265E/mfT1R3 = mfT1R2a K265E/mfT1R3 (Oryzias latipes, UniProt Q2MHK2+Q2MHK5, Q2MHK5:K265E); assay: cell-based; details: EC50, [Cl-]o=10 mM; no unit printed with values, x-axis title L-Gln [M]
Method: (§1) The buffers with lower Cl^− were prepared by progressively replacing NaCl, KCl, CaCl2 and MgCl2 in the buffer with gluconate equivalents[20]. The pH was adjusted to 7.4 with NaOH. Ligands were diluted with the assay buffers at the desired concentrations.
(§2) Measurements of the responses of the cells by cell-based assay based on the intracellular Ca^2+ mobilization were carried out as described previously with some modifications[20],[34],[46],[47]. Cell lines stably expressing T1R2, T1R3 and chimeric G-protein α-subunit, G16gust44[48], were constructed using the Flp-In pcDNA5/FRT complete system (Thermo Fisher Scientific, Waltham, MA, USA) described in our previous studies[34],[46]. […] Fluorescence changes (i.e., excitation at 485 nm and emission at 525 nm with a cutoff at 515 nm) were monitored at 2 s intervals. […] The response of each well was determined as ∆RFU (delta relative fluorescent units), which was calculated as (maximum fluorescent value)—(minimum fluorescent value). […] Dose‒response fitting curves were calculated by Prism 9 (GraphPad Software, San Diego, CA) using nonlinear regression (log(agonist) vs. response—variable slope), based on the integrated data from the several independent experiments.

mfT1R2a/mfT1R3 T105E = mfT1R2a/mfT1R3 T105E (Oryzias latipes, UniProt Q2MHK2+Q2MHK5, Q2MHK2:T105E); assay: cell-based; details: EC50, [Cl-]o=10 mM; unit inferred
Method: as §1, §2

mfT1R2a K295P/mfT1R3 = mfT1R2a K295P/mfT1R3 (Oryzias latipes, UniProt Q2MHK2+Q2MHK5, Q2MHK5:K295P); assay: cell-based; details: EC50, [Cl-]o=10 mM; no unit printed with values, x-axis title L-Gln [M]
Method: as §1, §2

mfT1R2a/mfT1R3 = biological target: T1, mfT1R2a/mfT1R3 (Oryzias latipes, UniProt Q2MHK2+Q2MHK5); assay: Ca2+ mobilization dose-response assay, stable cells expressing mfT1R2a/mfT1R3 with G16gust44
T1 sequence (Q2MHK5 20-819): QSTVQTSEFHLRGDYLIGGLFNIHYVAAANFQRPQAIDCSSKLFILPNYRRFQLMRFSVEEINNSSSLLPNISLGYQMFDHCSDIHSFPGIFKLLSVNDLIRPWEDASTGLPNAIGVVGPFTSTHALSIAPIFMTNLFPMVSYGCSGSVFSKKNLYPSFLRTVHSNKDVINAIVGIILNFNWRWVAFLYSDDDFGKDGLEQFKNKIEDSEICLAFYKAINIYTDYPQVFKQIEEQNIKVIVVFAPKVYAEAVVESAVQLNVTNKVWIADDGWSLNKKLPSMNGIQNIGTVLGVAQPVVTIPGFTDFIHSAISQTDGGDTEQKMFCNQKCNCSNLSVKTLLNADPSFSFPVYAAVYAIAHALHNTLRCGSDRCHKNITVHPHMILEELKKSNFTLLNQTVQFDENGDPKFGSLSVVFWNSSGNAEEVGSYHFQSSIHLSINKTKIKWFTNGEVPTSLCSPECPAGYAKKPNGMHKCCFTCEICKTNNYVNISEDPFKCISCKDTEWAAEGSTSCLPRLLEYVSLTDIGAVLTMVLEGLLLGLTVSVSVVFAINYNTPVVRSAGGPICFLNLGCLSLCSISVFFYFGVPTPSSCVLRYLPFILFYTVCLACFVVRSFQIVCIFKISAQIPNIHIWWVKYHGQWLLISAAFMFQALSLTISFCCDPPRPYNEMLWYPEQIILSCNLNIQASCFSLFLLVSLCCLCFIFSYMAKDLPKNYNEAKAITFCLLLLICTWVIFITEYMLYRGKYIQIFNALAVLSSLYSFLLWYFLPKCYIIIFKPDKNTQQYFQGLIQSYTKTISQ
T1 sequence (Q2MHK2 20-853): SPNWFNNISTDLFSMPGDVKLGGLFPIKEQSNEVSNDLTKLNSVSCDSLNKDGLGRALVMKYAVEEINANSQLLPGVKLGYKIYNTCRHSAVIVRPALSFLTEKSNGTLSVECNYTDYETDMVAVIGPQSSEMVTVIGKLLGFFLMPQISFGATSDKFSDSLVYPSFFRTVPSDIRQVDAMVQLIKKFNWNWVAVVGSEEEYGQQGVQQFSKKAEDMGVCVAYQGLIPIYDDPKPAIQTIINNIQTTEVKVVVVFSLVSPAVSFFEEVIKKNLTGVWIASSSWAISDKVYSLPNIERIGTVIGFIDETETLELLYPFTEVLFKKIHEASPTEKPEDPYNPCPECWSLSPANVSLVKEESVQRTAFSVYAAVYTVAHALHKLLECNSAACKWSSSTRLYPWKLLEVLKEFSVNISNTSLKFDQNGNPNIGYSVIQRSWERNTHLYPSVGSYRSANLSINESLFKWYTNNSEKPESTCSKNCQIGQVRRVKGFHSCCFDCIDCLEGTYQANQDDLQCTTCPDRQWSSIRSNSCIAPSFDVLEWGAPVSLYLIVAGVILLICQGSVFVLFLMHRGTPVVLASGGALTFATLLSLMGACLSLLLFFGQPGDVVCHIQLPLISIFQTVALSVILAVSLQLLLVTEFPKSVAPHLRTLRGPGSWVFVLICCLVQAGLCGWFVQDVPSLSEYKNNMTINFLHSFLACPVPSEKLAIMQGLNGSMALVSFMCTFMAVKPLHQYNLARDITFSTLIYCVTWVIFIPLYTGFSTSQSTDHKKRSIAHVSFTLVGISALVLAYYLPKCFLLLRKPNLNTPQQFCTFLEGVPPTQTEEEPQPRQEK
Method: as §1
(§3) Measurements of the responses of the cells by cell-based assay based on the intracellular Ca^2+ mobilization were carried out as described previously with some modifications[20],[34],[46],[47]. […] The cells were seeded in 96-well plates (clear-bottomed CellBIND surface plate, Corning, Glendale, AZ, USA) coated with ε-poly-L-lysine (Cosmo Bio, Tokyo, Japan) at approximately 70,000 cells per well. After 20 h, the medium was removed and replaced with high Cl^− buffer. After 3 h 30 min incubation at 27 °C, cells were loaded with 5 µM calcium-indicator dye Fluo-8 AM (AAT Bioquest, Sunnyvale, CA, USA) diluted in high Cl^− buffer. After incubation for 30 min at 27 °C, the cells were washed with buffers containing appropriate concentrations of Cl^−. The cellular assay was initiated after 3–5 min of resting and was completed within 5 min. The measurements were made using FlexStation 3 (Molecular Devices, Sunnyvale, CA, USA) at 27 °C. Fluorescence changes (i.e., excitation at 485 nm and emission at 525 nm with a cutoff at 515 nm) were monitored at 2 s intervals. A 100-µL aliquot of assay buffer supplemented with 2 × ligands was added at 20 s, and scanning was continued for an additional 40 s. The response of each well was determined as ∆RFU (delta relative fluorescent units), which was calculated as (maximum fluorescent value)—(minimum fluorescent value). […] Such normalized data from more than three independent experiments are reported as the mean ± standard error of the mean (SEM). Dose‒response fitting curves were calculated by Prism 9 (GraphPad Software, San Diego, CA) using nonlinear regression (log(agonist) vs. response—variable slope), based on the integrated data from the several independent experiments.

mfT1R2a K265A/mfT1R3 = mfT1R2a K265A/mfT1R3 (Oryzias latipes, UniProt Q2MHK2+Q2MHK5, Q2MHK5:K265A); assay: cell-based; details: EC50, [Cl-]o=10 mM; no unit printed with values, x-axis title L-Gln [M]
Method: as §1
(§4) Measurements of the responses of the cells by cell-based assay based on the intracellular Ca^2+ mobilization were carried out as described previously with some modifications[20],[34],[46],[47]. […] The cells were seeded in 96-well plates (clear-bottomed CellBIND surface plate, Corning, Glendale, AZ, USA) coated with ε-poly-L-lysine (Cosmo Bio, Tokyo, Japan) at approximately 70,000 cells per well. After 20 h, the medium was removed and replaced with high Cl^− buffer. […] Fluorescence changes (i.e., excitation at 485 nm and emission at 525 nm with a cutoff at 515 nm) were monitored at 2 s intervals. […] The response of each well was determined as ∆RFU (delta relative fluorescent units), which was calculated as (maximum fluorescent value)—(minimum fluorescent value). […] Dose‒response fitting curves were calculated by Prism 9 (GraphPad Software, San Diego, CA) using nonlinear regression (log(agonist) vs. response—variable slope), based on the integrated data from the several independent experiments.

zfT1R2b/zfT1R3 = biological target: T2, zfT1R2b/zfT1R3 (Danio rerio, UniProt A0A8M1NDZ5+Q2MHK9); assay: Ca2+ mobilization dose-response assay, stable cells expressing zfT1R2b/zfT1R3 with G16gust44; details: 10 mM vs 141.4 mM Cl- buffer
T2 sequence (A0A8M1NDZ5 18-823): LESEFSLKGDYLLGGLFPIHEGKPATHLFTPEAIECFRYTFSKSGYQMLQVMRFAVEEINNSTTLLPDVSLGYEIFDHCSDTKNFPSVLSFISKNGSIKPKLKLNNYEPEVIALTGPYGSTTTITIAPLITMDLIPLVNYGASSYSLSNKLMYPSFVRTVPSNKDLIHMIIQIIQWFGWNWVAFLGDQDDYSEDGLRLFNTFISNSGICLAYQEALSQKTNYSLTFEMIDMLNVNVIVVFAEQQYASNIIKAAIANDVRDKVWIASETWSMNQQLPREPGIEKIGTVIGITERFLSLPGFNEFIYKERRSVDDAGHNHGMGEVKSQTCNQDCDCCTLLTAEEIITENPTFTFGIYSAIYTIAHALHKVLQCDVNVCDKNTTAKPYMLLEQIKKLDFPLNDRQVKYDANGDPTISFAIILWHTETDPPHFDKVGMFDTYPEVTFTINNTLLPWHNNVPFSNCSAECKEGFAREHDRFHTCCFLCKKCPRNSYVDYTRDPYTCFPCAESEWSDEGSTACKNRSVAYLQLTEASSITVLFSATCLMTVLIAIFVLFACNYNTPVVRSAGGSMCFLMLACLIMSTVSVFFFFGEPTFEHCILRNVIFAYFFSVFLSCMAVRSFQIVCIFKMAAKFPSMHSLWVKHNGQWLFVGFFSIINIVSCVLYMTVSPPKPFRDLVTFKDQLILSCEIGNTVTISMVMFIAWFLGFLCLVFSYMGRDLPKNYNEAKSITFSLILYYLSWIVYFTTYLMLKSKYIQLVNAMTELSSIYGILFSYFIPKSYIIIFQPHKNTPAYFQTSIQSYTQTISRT
T2 sequence (Q2MHK9 25-850): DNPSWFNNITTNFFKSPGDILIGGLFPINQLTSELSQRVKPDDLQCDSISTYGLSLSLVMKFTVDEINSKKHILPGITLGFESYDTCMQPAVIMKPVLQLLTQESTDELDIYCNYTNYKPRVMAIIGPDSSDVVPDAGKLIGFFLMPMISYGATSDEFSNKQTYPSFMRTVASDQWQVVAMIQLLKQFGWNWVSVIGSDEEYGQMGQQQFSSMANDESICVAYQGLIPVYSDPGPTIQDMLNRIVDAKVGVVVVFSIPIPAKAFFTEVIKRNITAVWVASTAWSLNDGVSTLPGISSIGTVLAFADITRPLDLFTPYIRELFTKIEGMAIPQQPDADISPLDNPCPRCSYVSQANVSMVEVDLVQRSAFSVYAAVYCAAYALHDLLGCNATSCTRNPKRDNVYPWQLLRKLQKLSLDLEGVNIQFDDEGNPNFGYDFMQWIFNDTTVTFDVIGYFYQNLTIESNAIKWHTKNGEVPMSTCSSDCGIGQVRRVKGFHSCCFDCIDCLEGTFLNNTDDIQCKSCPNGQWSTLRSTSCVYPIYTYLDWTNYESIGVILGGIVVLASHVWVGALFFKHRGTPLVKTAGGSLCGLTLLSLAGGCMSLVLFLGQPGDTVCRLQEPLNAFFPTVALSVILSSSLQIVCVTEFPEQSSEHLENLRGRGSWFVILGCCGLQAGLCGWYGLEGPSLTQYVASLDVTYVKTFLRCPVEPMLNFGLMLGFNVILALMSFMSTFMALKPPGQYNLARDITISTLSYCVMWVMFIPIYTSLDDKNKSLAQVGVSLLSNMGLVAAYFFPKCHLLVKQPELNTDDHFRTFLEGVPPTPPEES
Method: as §1, §3

mfT1R2c/mfT1R3 T105E = mfT1R2c/mfT1R3 T105E (Oryzias latipes, UniProt Q2MHK2+Q2MHK3, Q2MHK2:T105E); assay: cell-based; details: EC50, [Cl-]o=10 mM; unit inferred
Method: as §1, §4

mfT1R2b E260K/mfT1R3 = format: cell-based, medaka fish; details: 10 mM vs high Cl- buffer
Method: as §1, §4

mfT1R2b/mfT1R3 = assay: Ca2+ mobilization dose-response assay, stable cells expressing mfT1R2b/mfT1R3 with G16gust44; details: 10 mM vs 141.4 mM Cl- buffer
Method: as §1, §4

zfT1R2a/zfT1R3 = biological target: T3, zfT1R2a/zfT1R3 (Danio rerio, UniProt A0A8M1N8F9+Q2MHK9); assay: Ca2+ mobilization dose-response assay, stable cells expressing zfT1R2a/zfT1R3 with G16gust44
T3 sequence (A0A8M1N8F9 26-825): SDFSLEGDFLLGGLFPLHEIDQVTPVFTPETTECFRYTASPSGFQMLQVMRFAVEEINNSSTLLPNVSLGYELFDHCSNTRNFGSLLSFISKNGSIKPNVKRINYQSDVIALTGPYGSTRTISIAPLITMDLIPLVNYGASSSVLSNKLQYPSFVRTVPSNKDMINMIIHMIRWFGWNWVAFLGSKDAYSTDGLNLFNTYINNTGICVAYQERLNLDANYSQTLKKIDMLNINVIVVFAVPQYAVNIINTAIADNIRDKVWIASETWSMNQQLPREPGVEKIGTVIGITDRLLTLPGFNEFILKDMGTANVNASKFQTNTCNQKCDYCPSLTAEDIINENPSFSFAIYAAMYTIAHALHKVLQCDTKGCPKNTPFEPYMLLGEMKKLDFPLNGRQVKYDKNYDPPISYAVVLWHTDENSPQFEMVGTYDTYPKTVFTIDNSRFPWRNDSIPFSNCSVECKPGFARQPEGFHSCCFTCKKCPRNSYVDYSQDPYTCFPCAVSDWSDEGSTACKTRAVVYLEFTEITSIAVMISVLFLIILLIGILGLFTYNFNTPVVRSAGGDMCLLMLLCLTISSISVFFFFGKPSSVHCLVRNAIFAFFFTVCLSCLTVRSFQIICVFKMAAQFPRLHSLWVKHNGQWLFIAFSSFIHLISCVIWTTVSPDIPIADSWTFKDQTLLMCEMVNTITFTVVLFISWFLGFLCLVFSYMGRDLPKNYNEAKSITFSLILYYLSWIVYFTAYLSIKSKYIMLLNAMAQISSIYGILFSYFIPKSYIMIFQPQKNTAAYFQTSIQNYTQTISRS
T3 sequence (Q2MHK9 25-850): T2 sequence (Q2MHK9 25-850)
Method: as §1, §3

mfT1R2b E260A/mfT1R3 = format: cell-based, medaka fish; details: 10 mM vs high Cl- buffer
Method: as §1, §4

mfT1R2c/mfT1R3 = mfT1R2c/mfT1R3 (Oryzias latipes, UniProt Q2MHK2+Q2MHK3); assay: Ca2+ mobilization dose-response assay, stable cells expressing mfT1R2c/mfT1R3 with G16gust44
Method: as §1, §3

[1] = EC50, [Cl-]o=10 mM, unit inferred

Chain of mfT1R2c/mfT1R3 (Q2MHK3 22-818, one chain of several): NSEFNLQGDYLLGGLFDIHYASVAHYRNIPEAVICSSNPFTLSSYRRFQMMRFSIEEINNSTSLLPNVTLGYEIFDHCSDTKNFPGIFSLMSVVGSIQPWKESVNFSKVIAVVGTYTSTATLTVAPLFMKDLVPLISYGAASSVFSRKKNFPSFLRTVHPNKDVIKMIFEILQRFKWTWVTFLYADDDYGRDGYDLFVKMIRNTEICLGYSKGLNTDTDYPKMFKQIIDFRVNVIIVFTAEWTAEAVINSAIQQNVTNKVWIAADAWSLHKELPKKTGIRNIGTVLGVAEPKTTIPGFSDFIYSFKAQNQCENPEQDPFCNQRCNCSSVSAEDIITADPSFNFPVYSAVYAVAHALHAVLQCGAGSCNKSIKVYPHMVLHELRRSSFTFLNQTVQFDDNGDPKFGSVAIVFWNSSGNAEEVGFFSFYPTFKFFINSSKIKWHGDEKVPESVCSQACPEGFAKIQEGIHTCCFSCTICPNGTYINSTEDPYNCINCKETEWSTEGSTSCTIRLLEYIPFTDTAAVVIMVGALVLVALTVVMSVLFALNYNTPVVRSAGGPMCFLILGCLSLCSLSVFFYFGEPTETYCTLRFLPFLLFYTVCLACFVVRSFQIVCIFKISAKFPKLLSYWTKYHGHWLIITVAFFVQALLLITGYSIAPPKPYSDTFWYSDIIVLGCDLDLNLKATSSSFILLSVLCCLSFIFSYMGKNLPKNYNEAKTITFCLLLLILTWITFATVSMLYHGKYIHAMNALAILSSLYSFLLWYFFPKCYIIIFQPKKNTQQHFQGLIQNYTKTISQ
Chain of mfT1R2c/mfT1R3 T105E (Q2MHK2 entry or part of it T105E): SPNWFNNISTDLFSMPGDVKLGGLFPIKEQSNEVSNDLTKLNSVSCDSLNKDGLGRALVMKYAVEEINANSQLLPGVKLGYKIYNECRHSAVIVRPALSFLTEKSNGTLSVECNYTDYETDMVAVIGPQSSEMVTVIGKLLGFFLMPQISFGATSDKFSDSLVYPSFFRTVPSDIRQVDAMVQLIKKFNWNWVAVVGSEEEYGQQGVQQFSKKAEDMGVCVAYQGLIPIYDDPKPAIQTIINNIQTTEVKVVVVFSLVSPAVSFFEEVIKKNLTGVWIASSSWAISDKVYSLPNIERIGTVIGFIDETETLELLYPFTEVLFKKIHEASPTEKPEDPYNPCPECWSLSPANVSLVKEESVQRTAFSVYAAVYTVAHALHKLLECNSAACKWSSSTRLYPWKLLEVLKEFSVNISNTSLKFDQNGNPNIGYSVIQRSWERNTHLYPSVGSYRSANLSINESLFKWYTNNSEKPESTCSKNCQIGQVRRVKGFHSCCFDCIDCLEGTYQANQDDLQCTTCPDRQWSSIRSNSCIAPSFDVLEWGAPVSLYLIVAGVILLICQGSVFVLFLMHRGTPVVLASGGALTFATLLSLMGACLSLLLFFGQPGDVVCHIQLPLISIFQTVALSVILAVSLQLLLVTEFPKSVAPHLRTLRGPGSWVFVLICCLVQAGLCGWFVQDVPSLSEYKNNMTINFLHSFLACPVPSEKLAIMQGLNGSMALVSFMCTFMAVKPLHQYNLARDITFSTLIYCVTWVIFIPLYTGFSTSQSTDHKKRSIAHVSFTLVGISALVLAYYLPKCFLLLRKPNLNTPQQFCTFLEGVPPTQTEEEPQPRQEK
Chain of mfT1R2c/mfT1R3 T105E (Q2MHK3 entry or part of it): as the sequence (Q2MHK3 22-818, one chain of several) above
Chain of mfT1R2a K265E/mfT1R3 (Q2MHK5 entry or part of it K265E, one chain of several): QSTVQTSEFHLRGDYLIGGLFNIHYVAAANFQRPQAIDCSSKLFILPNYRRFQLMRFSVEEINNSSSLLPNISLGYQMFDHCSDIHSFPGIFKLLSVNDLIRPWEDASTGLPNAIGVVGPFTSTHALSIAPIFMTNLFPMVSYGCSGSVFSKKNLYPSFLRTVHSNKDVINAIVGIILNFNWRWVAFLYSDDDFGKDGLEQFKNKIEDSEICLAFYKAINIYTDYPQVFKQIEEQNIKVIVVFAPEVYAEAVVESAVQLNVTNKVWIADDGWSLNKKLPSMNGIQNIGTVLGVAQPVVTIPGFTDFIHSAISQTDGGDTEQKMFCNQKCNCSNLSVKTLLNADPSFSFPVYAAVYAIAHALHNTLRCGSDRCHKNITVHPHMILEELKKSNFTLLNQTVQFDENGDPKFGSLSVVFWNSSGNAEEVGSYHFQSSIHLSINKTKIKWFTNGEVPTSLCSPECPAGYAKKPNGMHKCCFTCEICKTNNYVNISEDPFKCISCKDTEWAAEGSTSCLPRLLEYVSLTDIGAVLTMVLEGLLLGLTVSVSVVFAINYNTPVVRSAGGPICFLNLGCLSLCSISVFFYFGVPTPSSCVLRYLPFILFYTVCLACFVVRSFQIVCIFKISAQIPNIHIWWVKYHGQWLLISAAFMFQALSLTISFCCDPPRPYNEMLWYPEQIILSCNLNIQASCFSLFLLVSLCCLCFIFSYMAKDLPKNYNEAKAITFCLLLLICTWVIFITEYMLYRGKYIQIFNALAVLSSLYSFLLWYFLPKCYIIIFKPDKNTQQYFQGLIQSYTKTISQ
Chain of mfT1R2a/mfT1R3 T105E (Q2MHK2 entry or part of it T105E, one chain of several): as the sequence (Q2MHK2 entry or part of it T105E) above
Chain of mfT1R2a K295P/mfT1R3 (Q2MHK5 entry or part of it K295P, one chain of several): as the sequence (Q2MHK5 entry or part of it K265E, one chain of several) above, with E246K, K276P counted along it
Chain of mfT1R2a K265A/mfT1R3 (Q2MHK5 entry or part of it K265A, one chain of several): as the sequence (Q2MHK5 entry or part of it K265E, one chain of several) above, with E246A counted along it

Structure (SMILES) | EC50 (mfT1R2a K265E/mfT1R3) [M] | pEC50 (mfT1R2a/mfT1R3 T105E) | EC50 (mfT1R2a K295P/mfT1R3) [M] | EC50 in 10 mM Cl- buffer relative to high Cl- buffer (mfT1R2a/mfT1R3; 10 mM vs 141.4 mM Cl- buffer) | pEC50 (mfT1R2a/mfT1R3; [1]) | EC50 (mfT1R2a K265A/mfT1R3) [M] | EC50 in 10 mM Cl- buffer relative to high Cl- buffer (zfT1R2b/zfT1R3) | pEC50 (mfT1R2c/mfT1R3 T105E) | effect of [Cl-]o on sensitivity (mfT1R2b E260K/mfT1R3) | effect of anionic buffer composition on sensitivity (mfT1R2b/mfT1R3) | EC50 in 10 mM Cl- buffer relative to high Cl- buffer (zfT1R2a/zfT1R3; 10 mM vs 141.4 mM Cl- buffer) | pEC50 (zfT1R2a/zfT1R3; [1]) | effect of [Cl-]o on sensitivity (mfT1R2b E260A/mfT1R3) | increase in EC50 in 10 mM Cl- buffer compared to high Cl- buffer (mfT1R2c/mfT1R3; 10 mM vs 141.4 mM Cl- buffer) | pEC50 (mfT1R2c/mfT1R3; [1]) | change of EC50 value with [Cl-]o (mfT1R2c/mfT1R3; range from 10 to 80 mM [Cl-]o)
NC(=O)CC[C@H](N)C(=O)O [L-Gln, L-glutamine] | 0.000208 | 3.06 | 0.000368 | approximately 6.5 times higher | 3.39 | 0.000283 |  |  |  |  |  |  |  |  |  | 
O=C(O)[C@@H]1CCCN1 [L-Pro, L-proline] |  |  |  |  |  |  | approximately half | 4.58 | hardly affected | hardly affected | approximately 5 times higher | 3.36 | hardly affected | approximately threefold increase | 4.82 | almost unchanged
